Experimental data as given in US20090326014A1, “Use of 5-ht7 receptor agonists for the treatment of pain” (Laboratorios Del Dr. Esteve, S.A., priority 2006, published 2009).

Legend:
[1] = test system: capsaicin-induced mechanical allodynia; test: Capsaicin test, proallodynic protocol (4 ng capsaicin, 0.25 g von Frey filament); type: in vivo, mice; details: 0.25 g pressure
Experimental: Alternatively, in some experiments, only 4 ng (instead of 1 μg) of capsaicin were injected into the paw and the pressure exerted by the filament was reduced to 0.25 g (instead of 1 g). […] This approach was used to test the possibility that treatments could exert a proallodynic effect. The FIG. 1 summarizes the two different experimental approaches carried out in this study.

[2] = target: T1, h5-HT1F (Homo sapiens, UniProt P30939); test: Radioligand binding assay, h5-HT1F; details: read-out: Affinity [ki (nM)]
T1 sequence (P30939 1-366): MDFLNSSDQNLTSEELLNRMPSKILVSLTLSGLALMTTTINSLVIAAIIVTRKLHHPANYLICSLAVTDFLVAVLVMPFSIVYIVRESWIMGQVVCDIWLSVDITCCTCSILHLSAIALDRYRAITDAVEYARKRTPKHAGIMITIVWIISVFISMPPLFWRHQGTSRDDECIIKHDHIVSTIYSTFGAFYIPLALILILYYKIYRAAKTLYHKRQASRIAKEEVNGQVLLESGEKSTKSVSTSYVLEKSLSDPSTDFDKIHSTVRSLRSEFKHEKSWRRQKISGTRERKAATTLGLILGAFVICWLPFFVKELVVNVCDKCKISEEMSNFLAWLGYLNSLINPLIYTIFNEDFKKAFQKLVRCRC

[3] = target: h5-HT7 (Homo sapiens, UniProt P34969); details: read-out: Affinity [ki (nM)]
Chain of h5-HT7 (P34969 whole entry): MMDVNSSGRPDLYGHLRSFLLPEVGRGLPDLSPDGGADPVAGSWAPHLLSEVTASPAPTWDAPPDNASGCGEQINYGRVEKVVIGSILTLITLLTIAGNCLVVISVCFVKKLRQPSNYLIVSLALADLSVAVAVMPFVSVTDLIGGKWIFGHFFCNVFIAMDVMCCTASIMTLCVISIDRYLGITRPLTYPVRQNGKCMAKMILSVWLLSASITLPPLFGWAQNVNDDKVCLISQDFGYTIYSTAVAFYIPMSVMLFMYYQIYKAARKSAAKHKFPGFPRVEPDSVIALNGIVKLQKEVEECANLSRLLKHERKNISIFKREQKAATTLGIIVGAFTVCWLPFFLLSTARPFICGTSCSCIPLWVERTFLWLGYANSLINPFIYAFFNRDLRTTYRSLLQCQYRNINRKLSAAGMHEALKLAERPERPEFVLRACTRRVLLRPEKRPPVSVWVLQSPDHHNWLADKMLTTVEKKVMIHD

[4] = target: T2, h5-HT1A (Homo sapiens, UniProt P08908); test: Radioligand binding assay, h5-HT1A; details: h5-HT1A; read-out: Affinity [ki (nM)]
T2 sequence (P08908 1-422): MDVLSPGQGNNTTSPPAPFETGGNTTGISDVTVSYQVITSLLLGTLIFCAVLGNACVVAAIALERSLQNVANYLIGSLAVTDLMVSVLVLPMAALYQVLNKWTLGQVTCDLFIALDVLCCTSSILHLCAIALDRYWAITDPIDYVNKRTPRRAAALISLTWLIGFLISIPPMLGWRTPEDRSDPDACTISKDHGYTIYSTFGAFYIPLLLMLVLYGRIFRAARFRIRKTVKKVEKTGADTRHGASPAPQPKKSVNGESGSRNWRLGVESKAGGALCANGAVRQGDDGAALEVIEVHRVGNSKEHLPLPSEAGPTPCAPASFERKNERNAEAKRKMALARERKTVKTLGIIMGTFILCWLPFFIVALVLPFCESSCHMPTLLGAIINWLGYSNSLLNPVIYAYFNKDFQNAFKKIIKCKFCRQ

[5] = target: h5-HT2A (Homo sapiens, UniProt P28223); test: Radioligand binding assay, h5-HT2A; details: read-out: Affinity [ki (nM)]
Chain of h5-HT2A (P28223 whole entry): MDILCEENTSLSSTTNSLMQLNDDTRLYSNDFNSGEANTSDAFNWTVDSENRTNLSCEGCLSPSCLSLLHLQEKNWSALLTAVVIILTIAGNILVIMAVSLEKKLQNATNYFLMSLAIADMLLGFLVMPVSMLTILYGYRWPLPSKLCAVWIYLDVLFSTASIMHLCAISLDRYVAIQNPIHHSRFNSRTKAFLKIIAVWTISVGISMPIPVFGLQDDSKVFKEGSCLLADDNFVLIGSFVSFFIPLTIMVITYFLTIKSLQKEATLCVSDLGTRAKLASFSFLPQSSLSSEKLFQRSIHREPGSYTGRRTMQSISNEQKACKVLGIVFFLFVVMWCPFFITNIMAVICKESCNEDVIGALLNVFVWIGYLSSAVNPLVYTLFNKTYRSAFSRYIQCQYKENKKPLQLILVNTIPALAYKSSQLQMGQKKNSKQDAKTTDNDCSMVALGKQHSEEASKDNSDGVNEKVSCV

[6] = target: h5-HT2B (Homo sapiens, UniProt P41595); test: Radioligand binding assay, h5-HT2B; details: h5-HT2B; read-out: Affinity [ki (nM)]
Chain of h5-HT2B (P41595 whole entry): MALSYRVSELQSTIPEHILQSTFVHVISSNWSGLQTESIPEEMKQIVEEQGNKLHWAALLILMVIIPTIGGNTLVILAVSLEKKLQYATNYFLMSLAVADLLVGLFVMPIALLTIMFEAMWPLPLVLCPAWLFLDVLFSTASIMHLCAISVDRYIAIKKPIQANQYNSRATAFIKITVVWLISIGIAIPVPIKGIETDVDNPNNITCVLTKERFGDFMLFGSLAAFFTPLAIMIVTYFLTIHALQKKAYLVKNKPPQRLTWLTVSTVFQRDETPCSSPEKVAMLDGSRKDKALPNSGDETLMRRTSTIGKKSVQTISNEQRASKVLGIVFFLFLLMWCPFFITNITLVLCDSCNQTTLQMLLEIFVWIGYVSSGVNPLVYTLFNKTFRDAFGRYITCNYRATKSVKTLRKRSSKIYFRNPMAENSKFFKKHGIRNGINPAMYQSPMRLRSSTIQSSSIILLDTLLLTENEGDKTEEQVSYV

[7] = test system: capsaicin-induced mechanical allodynia; test: Capsaicin test, antiallodynic protocol (1 μg capsaicin, 1 g von Frey filament); details: for effect on capsaicin-induced mechanical allodynia: 1 g filament
Experimental: Animals were housed in groups of five, provided with food and water ad libitum and kept in controlled laboratory conditions with the temperature maintained at 21±1° C. and light in 12 h cycles (on at 07:00 h and off at 19:00 h). Experiments were carried out in a soundproof and air-regulated experimental room. The number of mice per group in each individual experiment was 16.
Capsaicin (8-methyl-N-vanillyl 6-nonamide) was dissolved in 1% DMSO (vehicle). […] Doses were calculated based on the molecular weight of the free base. All the compounds and vehicles (1% DMSO or physiological saline) were administered in a volume of 5 ml/kg through the subcutaneous (s.c.) route. When two compounds were co-administered, they were injected s.c. in opposite flanks of the mice.
Subplantar capsaicin injection initially evokes a nocifensive behavior that is characterized by lifting and guarding the injected paw and typically lasts up to 5 min following injection. […] In this study, sensitization by subplantar capsaicin injection was used to assess the effect of several 5-HT7 ligands on mechanical allodynia.
Drug treatments with 5-HT7 ligands were done 30 min before capsaicin injection and withdrawal latencies to a mechanical stimulus were determined 15 min after capsaicin injection (FIG. 1).
Mechanical allodynia was quantified by measuring the hind paw withdrawal response latency to von Frey filament stimulation. Mice were placed into compartment enclosures in a test chamber with a framed metal mesh floor and allowed to acclimate to their environment for 120 min before testing. […] The mechanical stimulus was applied to the plantar surface of the right, capsaicin-injected hind paw from below the mesh floor by using an automated testing device (dynamic plantar aesthesiometer; Ugo Basile, Italy) that lifts a straight filament (0.5 mm diameter). The filament exerted a fixed upward pressure (1 g or 0.25 g) on the plantar surface. When the animal withdrew its hind paw, the mechanical stimulus automatically stopped and the latency time was recorded. Latency was defined as the time from the onset of exposure to the filament to the cessation of the pressure when the sensor detected the withdrawal of the paw. A cut-off latency of 60 sec was imposed. Paw withdrawal latencies were measured in triplicate for each animal.
This approach enabled us to evaluate the possible antiallodynic effect of 5-HT7 ligands.
Data are presented as mean paw withdrawal latency responses in sec±S.E.M. Capsaicin-injected hind paw withdrawal responses to mechanical stimulation of treated mice were compared with those of untreated (vehicle-treated) mice. Statistical analysis to test intergroup comparisons was made using an initial one-way analysis of variance followed by the Newman-Keuls multiple comparison test. The level of significance was set at p<0.05.

[8] = target: 5-HT7 receptors (Homo sapiens, UniProt P34969); details: Mahe et al., 2004; Romero et al., 2006; cited from earlier work
Chain of 5-HT7 receptors (P34969 whole entry): as the sequence (P34969 whole entry) above

[9] = target: h5-HT1E (Homo sapiens, UniProt P28566); test: Radioligand binding assay, h5-HT1E; details: read-out: Affinity [ki (nM)]
Chain of h5-HT1E (P28566 whole entry): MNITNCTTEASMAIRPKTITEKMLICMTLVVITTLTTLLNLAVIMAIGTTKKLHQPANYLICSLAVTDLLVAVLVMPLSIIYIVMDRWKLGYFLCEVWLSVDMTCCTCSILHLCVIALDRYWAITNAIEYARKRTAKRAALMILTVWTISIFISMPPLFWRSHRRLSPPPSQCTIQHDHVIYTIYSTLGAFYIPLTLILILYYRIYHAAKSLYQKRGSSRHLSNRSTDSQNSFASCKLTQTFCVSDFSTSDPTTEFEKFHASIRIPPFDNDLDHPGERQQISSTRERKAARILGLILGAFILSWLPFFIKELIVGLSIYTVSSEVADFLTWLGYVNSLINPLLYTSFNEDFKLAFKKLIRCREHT

[10] = target: h5-HT2C (Homo sapiens, UniProt P28335); test: Radioligand binding assay, h5-HT2C; details: h5-HT2C; read-out: Affinity [ki (nM)]
Chain of h5-HT2C (P28335 33-458): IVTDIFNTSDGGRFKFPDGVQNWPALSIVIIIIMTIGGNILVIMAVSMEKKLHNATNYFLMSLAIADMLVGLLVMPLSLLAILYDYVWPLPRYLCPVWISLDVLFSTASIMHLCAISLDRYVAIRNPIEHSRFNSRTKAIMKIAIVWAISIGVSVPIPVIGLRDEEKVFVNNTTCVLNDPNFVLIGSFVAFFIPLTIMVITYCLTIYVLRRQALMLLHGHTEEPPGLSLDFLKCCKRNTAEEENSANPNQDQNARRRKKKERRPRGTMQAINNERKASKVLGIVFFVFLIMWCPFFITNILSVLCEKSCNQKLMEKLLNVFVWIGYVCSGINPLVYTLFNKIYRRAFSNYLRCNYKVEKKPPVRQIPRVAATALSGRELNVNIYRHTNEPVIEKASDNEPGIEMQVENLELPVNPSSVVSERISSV

[11] = test system: sciatic nerve-ligatured rats; test: Chronic constriction injury of the sciatic nerve (CCI-SN), Randall-Sellito test; details: antagonist i.p., 5a-MSD s.c.; sciatic nerve-ligated rats
Experimental: All compounds were prepared as aqueous solutions. […] When two compounds were co-administered, one was injected s.c. and the other i.p.
Briefly, the right common sciatic nerve was exposed at mid-tight level by blunt dissection through the biceps femoris muscle. Proximal to the trifurcation, ≈10 mm of nerve was freed from adhering tissue and four loose ligatures (5.0 chromic catgut) were tied around the sciatic nerve (≈1 mm apart). […] In sham-operated control rats, an identical dissection was performed on the right side allowing the sciatic nerve to be freed from surrounding tissue, but not ligatured. Finally, muscle and skin were closed in layers with silk thread.
Mechanical nociceptive thresholds, expressed as grams (g), were measured using the Randall-Sellito test (Ugo Basile analgesimeter; Bioseb, Chaville, France). An increasing pressure was applied to the nerve-injured hindpaw of unrestrained rats until paw withdrawal (PW) and then a squeak (i.e. the vocalization threshold when the paw was held under pressure) were obtained. As PW is a spinally coordinated reflex whereas vocalization is a supra-spinal integrated response (Kayser and Christensen, 2000), this test allowed assessment of the respective contribution of spinal versus supra-spinal mechanisms.

[12] = test system: thermal hyperalgesia induced by partial sciatic nerve ligation; test: Partial sciatic nerve ligation, plantar test (thermal hyperalgesia)
Experimental: Animals were housed in groups of five, provided with food and water ad libitum and kept in controlled laboratory conditions with the temperature maintained at 21±1° C. and light in 12 h cycles (on at 07:00 h and off at 19:00 h). Experiments were carried out in a soundproof and air-regulated experimental room.
The rest of compounds were prepared as aqueous solutions. Doses were calculated based on the molecular weight of the free base. All the compounds and vehicles (1% DMSO or physiological saline) were administered in a volume of 5 ml/kg through the subcutaneous (s.c.) route. When two compounds were co-administered, they were injected s.c. in opposite flanks of the mice.
This model consists of partial injury to the sciatic nerve at mid-thigh level. All surgical procedures for nerve injury were performed under isoflurane (IsoFlo®, Abbott-Laboratorios Dr. Esteve, S. A., Barcelona, Spain) anesthesia (induction: 3%; surgery: 2%). Briefly, mice were anaesthetized and the common sciatic nerve was exposed at the level of the mid-thigh of the right hind paw. Partial nerve injury was produced at about 1 cm proximal to the nerve trifurcation by tying a tight ligature around approximately 33 to 50% the diameter of the sciatic nerve using 9-0 non-absorbable virgin silk suture (Alcon surgical, Texas, USA). Ligature enclosed the outer ⅓-½ sciatic nerve whereas the rest of the nerve (inner ⅔-½) was leaved “uninjured”. The muscle was then stitched with 6-0 silk suture and the skin incision was closed with wound clips. Control, sham-operated mice underwent the same surgical procedure and the sciatic nerve was exposed, but not ligated. After surgery, animals were allowed to recover for 5 days prior to initiation of nociceptive behavioral tests (see experimental protocol below).
The effectiveness of acute treatments with 5-HT7 ligands compared to vehicle on the expression of neuropathic pain was investigated based on the following experimental protocol. […] After the habituation period, pre-injury baseline responses in each test were established during 2 consecutive days. One day after baseline measurements, nerve injury or sham operation was induced as previously described. Mice were then tested in either the von Frey or the plantar test on day 5 after the surgical procedure to monitor post-injury responses. Post-injury baseline responses of mice treated with vehicle were obtained on day 10 (basal pre-treatment). On days 11-13 mice received treatment with three different doses of 5-HT7 ligands following a Latin square design. Finally, on day 14 after surgery, baseline responses in vehicle-treated mice (basal post-treatment) were evaluated as an internal control to ensure that mechanical allodynia and thermal hyperalgesia were not influenced by previous treatments in the Latin square design.

[13] = target: h5-HT6 (Homo sapiens, UniProt P50406); test: Radioligand binding assay, h5-HT6; details: h5-HT6; read-out: Affinity [ki (nM)]
Chain of h5-HT6 (P50406 whole entry): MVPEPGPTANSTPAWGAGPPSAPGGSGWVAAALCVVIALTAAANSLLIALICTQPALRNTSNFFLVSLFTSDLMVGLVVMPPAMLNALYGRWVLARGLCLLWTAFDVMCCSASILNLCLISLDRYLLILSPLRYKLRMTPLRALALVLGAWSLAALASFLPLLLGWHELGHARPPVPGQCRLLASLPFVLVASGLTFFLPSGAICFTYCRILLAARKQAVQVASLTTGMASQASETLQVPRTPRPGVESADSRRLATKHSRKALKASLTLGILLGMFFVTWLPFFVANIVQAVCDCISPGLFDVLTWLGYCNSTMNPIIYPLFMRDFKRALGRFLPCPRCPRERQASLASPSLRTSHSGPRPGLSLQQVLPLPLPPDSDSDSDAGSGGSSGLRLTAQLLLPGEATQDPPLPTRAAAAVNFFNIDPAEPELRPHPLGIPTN

[14] = target: h5-HT1D (Homo sapiens, UniProt P28221); test: Radioligand binding assay, h5-HT1D; details: read-out: Affinity [ki (nM)]
Chain of h5-HT1D (P28221 whole entry): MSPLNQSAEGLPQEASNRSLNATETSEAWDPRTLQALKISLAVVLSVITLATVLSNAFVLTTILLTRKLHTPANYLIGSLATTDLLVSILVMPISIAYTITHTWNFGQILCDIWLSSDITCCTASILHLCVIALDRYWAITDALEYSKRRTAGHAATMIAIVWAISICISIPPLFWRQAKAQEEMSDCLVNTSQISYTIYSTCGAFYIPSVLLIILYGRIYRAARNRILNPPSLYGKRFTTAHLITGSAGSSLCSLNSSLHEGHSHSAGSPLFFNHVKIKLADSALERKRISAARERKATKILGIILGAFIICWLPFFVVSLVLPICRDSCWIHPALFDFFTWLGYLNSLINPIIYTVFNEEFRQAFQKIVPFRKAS

[15] = target: h5-HT1B (Homo sapiens, UniProt P28222); test: Radioligand binding assay, h5-HT1B; details: read-out: Affinity [ki (nM)]
Chain of h5-HT1B (P28222 whole entry): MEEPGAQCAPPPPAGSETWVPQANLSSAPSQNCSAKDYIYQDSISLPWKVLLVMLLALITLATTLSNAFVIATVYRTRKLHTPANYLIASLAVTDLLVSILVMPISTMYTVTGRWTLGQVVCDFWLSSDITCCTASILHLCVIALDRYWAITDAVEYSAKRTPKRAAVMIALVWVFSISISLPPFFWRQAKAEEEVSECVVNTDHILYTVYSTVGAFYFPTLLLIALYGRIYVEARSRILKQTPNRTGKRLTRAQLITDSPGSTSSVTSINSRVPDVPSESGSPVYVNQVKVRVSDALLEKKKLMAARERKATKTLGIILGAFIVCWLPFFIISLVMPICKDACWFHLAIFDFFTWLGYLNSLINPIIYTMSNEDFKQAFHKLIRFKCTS

[16] = test system: mechanical allodynia induced by partial sciatic nerve ligation; test: Partial sciatic nerve ligation, von Frey test (mechanical allodynia); type: in vivo, mice
From the text: Mechanical allodynia was quantified by measuring the tactile threshold for hind paw withdrawal following von Frey filament stimulation. […] The filament exerted an increasing upward pressure on the plantar surface. The pressure increased linearly with time (0.1 g/s; from 0 to 5 g in 50 s) until the mouse withdrew its paw. […] A cut-off threshold of 5 g (50 s) was imposed.
The filament of 0.4 g was first used. […] This up-down procedure was stopped four measures after the first change in animal responding and the threshold of response was calculated. Clear paw withdrawal, shaking was considered as a nociceptive-like response.

With `Cc1cccc(S(=O)(=O)N(C)[C@H](C)CCN2CCC(C)CC2)c1` [SB-258719, (R)-3,N-Dimethyl-N-(1-methyl-3-(4-methylpiperidin-1-yl)propyl)benzene sulfonamide] the “proallodynic effect (paw withdrawal latency)” value ([1]; 10 mg/Kg s.c.) was “allodynia was evidenced”, the “proallodynic effect, dose-response” value ([1]; s.c.) was “dose-dependently promoted allodynia” and the Ki [2] was > 1000 nM. For the same molecule, the Ki [3] was 31.6 nM, the Ki [4] was > 1000 nM and the Ki [5] was > 1000 nM. For the same molecule, the Ki [6] was > 1000 nM, the “effect on capsaicin-induced mechanical allodynia” value ([7]; 20 mg/kg s.c.) was “significantly increased paw withdrawal latencies” and the “effect on capsaicin-induced mechanical allodynia” value ([7]; 2.5, 5 and 10 mg/kg s.c.) was “unaffected”. The “effect on the antiallodynic effect of AS-19 when co-administered” value ([7]; AS-19 at 5 and 10 mg/kg, WAY-100635 0.3 mg/kg or SB-258719 5 mg/kg s.c.) was “abolished”, the “effect on the antiallodynic effect of MSD-5a when co-administered” value ([7]; SB-258719 5 mg/kg + MSD-5a 10 mg/kg s.c.) was “blocked this antiallodynic effect” and the “effect on the antiallodynic effect of AS-19 when co-administered” value ([7]; SB-258719 2.5 and 5 mg/kg + AS-19 5 mg/kg s.c.) was “dose-dependently inhibited”. For the same molecule, the “functionality at 5-HT7 receptor as described” value [8] was “pure antagonist”, the Ki [9] was > 1000 nM and the Ki [10] was > 1000 nM. The “effect on 5a-MSD-induced anti-hyperalgesia/anti-allodynia” value [11] was “Blockade”, the “effect on thermal hyperalgesia (paw withdrawal latency)” value ([12]; 0.1-10 mg/kg s.c.) was “did not exert any effects” and the “effect on the antihyperalgesic effect of AS-19 when co-administered” value ([12]; SB-258719 5 mg/Kg + AS-19 5 mg/kg s.c., nerve-injured mice) was “blocked significantely the antihyperalgesic effects”. The “effect on the antihyperalgesic effect of MSD-5a when co-administered” value ([12]; SB-258719 5 mg/Kg + MSD-5a 10 mg/kg s.c., nerve-injured mice) was “had a tendency to revert MSD-5a (10 mg/kg) without significancy”, the Ki [13] was > 1000 nM and the Ki [14] was > 1000 nM. For the same molecule, the Ki [15] was > 1000 nM, the “effect alone on mechanical allodynia, nerve-injured mice” value ([16]; 5 mg/Kg s.c., day 11, single dose design) was “had no antiallodynic effect” and the “effect on mechanical threshold of the nerve-injured hind paw (proallodynic)” value ([16]; 10 mg/kg s.c., nerve-injured mice) was “significantly decreased the mechanical threshold”. For the same molecule, the “effect on the antiallodynic effect of AS-19 and MSD-5a when co-administered” value ([16]; SB-258719 5 mg/Kg, AS-19 5 mg/kg, MSD-5a 10 mg/kg s.c., nerve-injured mice) was “able to reverse the antiallodynic effect” and the “induction of mechanical allodynia in sham-operated mice” value ([16]; sham-operated, 10 mg/kg s.c.) was “able to induce mechanical allodynia”.
